Measured values: article PMC8753592, “Long-acting capsid inhibitor protects macaques from repeat SHIV challenges” (Nature, 2021)
Several values for one entry are separate records, joined by “and”; a condition that tells them apart may be missing. Identical values can stand only once.

Columns and labels:
[1] = ref Yant et al, Nat.Med, 2019;[4]; cited from earlier work
[2] = test system: SHIV-SF162P3; experiment: Repeated escalating-dose rectal SHIV challenge study (plasma viraemia by gag RT-qPCR); format: in vivo, rhesus macaques of Indian origin; settings: for Proportion of animals protected: 15 weekly rectal challenges, follow-up to week 24; for First viremic timepoint: individual infected animals; for Plasma SHIV viral load: GS-CA1 150mg/kg group
Procedure: For the challenge study, 24 outbred rhesus macaques of Indian origin were assigned to the three study groups with even sex and weight distributions. All animals were housed at Alpha Genesis (Yemassee, SC), and all procedures were conducted in compliance with all relevant local, state and federal regulations and were approved by the Alpha Genesis IACUC. […] The injection sites were monitored daily by veterinary staff for 3 days. Beginning in week 1, animals in all three groups were challenged by the intrarectal route with 1 ml of RPMI containing the specified dilution of a 3.62 × 10^3 TCID50 SHIV-SF162P3 stock. At each respective time point, the challenges were performed on the same day, using the same virus stock and inoculation method across the three groups. Whole blood was collected and processed into plasma and PBMCs as necessary to assess routine haematology, clinical chemistry, viral load and serology as well as for bioanalysis of drug levels. The animals were considered to be protected if they remained SHIV negative by plasma PCR assay and seronegative by enzyme immunoassay throughout the 15-week challenge phase and the 9-week follow-up.
RNA was extracted from rhesus macaque plasma using a QIAcube high-throughput instrument and an IndiSpin QIAcube HT Pathogen kit (Qiagen). RNA standards using the SIV gag sequence were generated by AmpliCap-Max T7 High-Yield Message Maker kit (Cell Script) and were purified using an RNA Clean and Concentrator kit (Zymo Research). Log dilutions of the RNA were included with each RT–qPCR assay. Reverse transcription of standards and samples was performed using a Superscript III VILO kit (Invitrogen). qPCR was performed using forward primer 5′-[…]-3′, reverse primer 5′-[…]-3′ and fluorescently labelled primer 5′-[…]-3′ on a Quantstudio 6 Flex system (Applied Biosystems). The assay LOD was 200 copies gag per ml.
Protection against acquired infection was analysed using Cox proportional hazard regression models based on the exact partial likelihood for discrete time expressed in weeks, which explicitly accounts for the time-varying viral challenge dose in the model. The hazard ratios with 95% confidence intervals for per-exposure relative reductions in acquisition risk were calculated for the GS-CA1-treated groups, and the results were compared with those for the vehicle-treated control group. Comparisons were considered statistically significant at a two-sided alpha level of 0.05 (P < 0.05). Statistical analyses were performed using GraphPad Prism version 8.1.2, SAS version 9.4 and R Studio software version 4.0.5.

CC(C)(C#Cc1ccc(-c2ccc(Cl)c3c(NS(=O)(=O)C4CC4)nn(CC(F)F)c23)c([C@H](Cc2cc(F)cc(F)c2)NC(=O)Cn2nc(C(F)F)c3c2C(F)(F)[C@@H]2C[C@H]32)n1)S(C)(=O)=O [GS-CA1]
Predicted Hepatic Clearance, rate, primary human hepatocytes [1]: 0.02 L/h/kg | Median weeks to viraemia (95% CI) ([2]; 150 mg/kg single s.c.): 16 weeks and 16 (11, –) weeks | study week until which no viraemia was detected in the group ([2]; 150 mg/kg single s.c.): 11 week | per-exposure risk reduction ([2]; 150 mg/kg single s.c. vs vehicle): 87% | Proportion of animals protected ([2]; 150 mg/kg single s.c.): 2/8 | First viremic timepoint ([2]; 150 mg/kg): 16 study week and 13 study week and 11 study week and 14 study week and 17 study week | Median weeks to viraemia (95% CI) ([2]; 300 mg/kg single s.c.): Not reached (17, –) | study week until which no viraemia was detected in the group ([2]; 300 mg/kg single s.c.): 17 week | per-exposure risk reduction ([2]; 300 mg/kg single s.c. vs vehicle): 97% | Proportion of animals protected ([2]; 300 mg/kg single s.c.): 5/8 | First viremic timepoint ([2]; 300 mg/kg): 17 study week | average plasma GS-CA1 at estimated mucosal infection ([2]; 2 weeks before first detectable viraemia, nine infected treated animals): 31.4 nM | plasma GS-CA1 at estimated mucosal infection as multiple of rhesus paEC95 ([2]; 2 weeks before first detectable viraemia, range 0.4–1.6): 1.0 | Plasma SHIV viral load ([2]; Week 1, individual animals): 200 gag RNA copies per ml | Plasma SHIV viral load ([2]; Week 2, individual animals): 200 gag RNA copies per ml | Plasma SHIV viral load ([2]; Week 3, individual animals): 200 gag RNA copies per ml | Plasma SHIV viral load ([2]; Week 4, individual animals): 200 gag RNA copies per ml | Plasma SHIV viral load ([2]; Week 5, individual animals): 200 gag RNA copies per ml | Plasma SHIV viral load ([2]; Week 6, individual animals): 200 gag RNA copies per ml | Plasma SHIV viral load ([2]; Week 7, individual animals): 200 gag RNA copies per ml | Plasma SHIV viral load ([2]; Week 8, individual animals): 200 gag RNA copies per ml | Plasma SHIV viral load ([2]; Week 9, individual animals): 200 gag RNA copies per ml | Plasma SHIV viral load ([2]; Week 10, individual animals): 200 gag RNA copies per ml | Plasma SHIV viral load ([2]; Week 11, individual animals, 150 mg/kg): 200 gag RNA copies per ml and 2317 gag RNA copies per ml | Plasma SHIV viral load ([2]; Week 12, individual animals, 150 mg/kg): 200 gag RNA copies per ml and 1251253 gag RNA copies per ml | Plasma SHIV viral load ([2]; Week 13, individual animals, 150 mg/kg): 200 gag RNA copies per ml and 4495324 gag RNA copies per ml and 15543 gag RNA copies per ml | Plasma SHIV viral load ([2]; Week 14, individual animals, 150 mg/kg): 200 gag RNA copies per ml and 192698 gag RNA copies per ml and 302527 gag RNA copies per ml and 14481 gag RNA copies per ml | Plasma SHIV viral load ([2]; Week 15, individual animals, 150 mg/kg): 200 gag RNA copies per ml and 1636073 gag RNA copies per ml and 41252 gag RNA copies per ml and 436449 gag RNA copies per ml | Plasma SHIV viral load ([2]; Week 16, individual animals, 150 mg/kg): 43433 gag RNA copies per ml and 200 gag RNA copies per ml and 144532 gag RNA copies per ml and 37186 gag RNA copies per ml and 15508 gag RNA copies per ml and 62513 gag RNA copies per ml | Plasma SHIV viral load ([2]; Week 17, individual animals, 150 mg/kg): 28104 gag RNA copies per ml and 200 gag RNA copies per ml and 128422 gag RNA copies per ml and 4020 gag RNA copies per ml and 5872 gag RNA copies per ml and 1974 gag RNA copies per ml and 76901 gag RNA copies per ml | Plasma SHIV viral load ([2]; Week 18, individual animals, 150 mg/kg): 8535 gag RNA copies per ml and 200 gag RNA copies per ml and 144695 gag RNA copies per ml and 18625 gag RNA copies per ml and 13017 gag RNA copies per ml and 2250 gag RNA copies per ml and 14905 gag RNA copies per ml | Plasma SHIV viral load ([2]; Week 19, individual animals, 150 mg/kg): 2197 gag RNA copies per ml and 200 gag RNA copies per ml and 23783 gag RNA copies per ml and 733 gag RNA copies per ml and 4607 gag RNA copies per ml and 1586 gag RNA copies per ml and 872 gag RNA copies per ml | Plasma SHIV viral load ([2]; Week 20, individual animals, 150 mg/kg): 200 gag RNA copies per ml and 533 gag RNA copies per ml and 294 gag RNA copies per ml and 1229 gag RNA copies per ml | Plasma SHIV viral load ([2]; Week 21, individual animals, 150 mg/kg): 200 gag RNA copies per ml and 8674 gag RNA copies per ml and 2199 gag RNA copies per ml | Plasma SHIV viral load ([2]; Week 22, individual animals, 150 mg/kg): 200 gag RNA copies per ml and 2557 gag RNA copies per ml and 493 gag RNA copies per ml | Plasma SHIV viral load ([2]; Week 23, individual animals, 150 mg/kg): 200 gag RNA copies per ml and 1150 gag RNA copies per ml and 1806 gag RNA copies per ml and 218 gag RNA copies per ml
